From patent US20170183306A1, “CYCLIC COMPOUNDS HAVING A 1,3 DIAMINO-FUNCTIONALITY FOR USE IN THE TREATMENT OF HIV INFECTION” (Universite Paris Descartes, priority 2014, published 2017)
Like-named read-outs stand apart in the source and are kept apart here.

Key:
Type in all cases: cell-based
[1] = test system: J-Lat cells; assay: J-Lat cells, percentage of GFP-positive cells by cytometry; conditions: 24 h, compound alone
Description: The J-Lat were grown in RPMI 1640 medium (Gibco-BRL) supplemented with 10% fetal bovine serum, 50 U/ml of penicillin, […] of streptomycin at 37 uC in a humidified 95% air/5% CO2 atmosphere. The cells were plated at 5.105 cells in a 96 well-plate. TNF ? was purchased from Immunosource. SAHA (suberoylanilide hydroxamic acid), prostratin (12-deoxyphorbol-13-acetate) and vorinostat were obtained from Sigma-Aldrich. The J-Lat cells were treated for 24 h with the different compounds alone. The cells were washed twice in PBS, re-suspended in PBS containing 4% paraformaldehyde and fixed for 30 min. Cells were next washed and re-suspended in PBS. The percentage of GFP-positive cells was measured with a LSRFortessa cytometer (Becton-Dickinson) using FACSDiva Version 6.1.3 according to the manufacturer's instructions.
The results for the J-Lat cells experiments are expressed as a percentage of the living fluorescent cells. In this model, some slight increase of viral production measured by fluorescence are quantified (table 1).

[2] = test system: wild type NL4-3 virus (HIV-1) in HeLa-p4 cells; assay: HeLa-p4 single-cycle HIV-1 infectivity, beta-galactosidase CPRG test; conditions: for activity at 50 µM: read-out: Hela-p4 CPRG 50 μM; for activity at 100 µM: read-out: Hela-p4 CPRG 100 μM
Description: (§1) HeLa-p4 cells are HeLa CD4 LTR-LacZ wherein LacZ expression is induced by the trans-activating protein Tat of HIV, making possible the precise quantification of HIV-1 infectivity from a single replication cycle. HeLa-CD4 cells growing exponentially at a density of 1×10^4/mL were placed in 96-well plates and infected the following day with 1 ng of HIV p24 antigen in the presence of different concentrations of compounds. The titles for a single cycle of the viruses were determined 48 hours after infection by quantifying the beta-galactosidase activity in lysates P4 by colorimetric test (CPRG, Promega) based on the cleavage of chlorophenol red-beta-D-galactopyranoside (CPRG) by beta-galactosidase. A cell viability assay measuring the absorbance at […] using the yellow tetrazolium reagent MTS [[…]] (Promega) was carried out.
(§2) For the helap4 cells experiments, the efficacy of the compounds is determined in comparison with control cells containing wild type NL4-3 virus alone (i.e. without any added compound) and is expressed as percentage of control. Then, the viral replication was increased for several compounds at the 50 and 100 μM concentrations with an absence of cytotoxic effects at the same concentrations (MTS test) (table 1).

[3] = test system: HeLa-p4 cells; assay: Cell viability assay (MTS) on HeLa-p4 cells
Description: as §1, §2

[4] = Human immunodeficiency virus 1, NL43, HeLaP4, 50 μM, 48 hours after infection, control = NL4-3 virus alone
[5] = Human immunodeficiency virus 1, NL43, HeLaP4, 100 μM, 48 hours after infection, control = NL4-3 virus alone
[6] = Human immunodeficiency virus 1, NL43, HeLaP4, 48 hours after infection, control = NL4-3 virus alone
[7] = Human immunodeficiency virus 1, NL43, HeLaP4, 48 h

## CC(C)(C)OC(=O)N[C@@H]1C[C@H](NC(=O)OC(C)(C)C)CN(Cc2ccc(N3CCCC3)cc2)C1 [ECO02-059-C, di-tert-butyl (1-(4-(pyrrolidin-1-yl)benzyl)piperidine-3,5-diyl)dicarbamate]
[1]
  J-lat 50 μM: 0.5 percentage of the living fluorescent cells
[2]; [4]
  activity at 50 µM: 198%
[2]; [5]
  activity at 100 µM: 177%
[3]; 50 μM, cell viability
  Hela-p4 MTS 50 μM: 95
[3]; 100 μM, cell viability
  Hela-p4 MTS 100 μM: 67

## N[C@@H]1C[C@H](N)CN(CCCCc2ccccc2)C1 [ECO02-026-C, 1-(4-phenylbutyl)piperidine-3,5-diamine]
[1]
  J-lat 50 μM: 65.0 percentage of the living fluorescent cells
[2]; [4]
  activity at 50 µM: 30%
[2]; [5]
  activity at 100 µM: 31%
[3]; 50 μM, cell viability
  Hela-p4 MTS 50 μM: 26
[3]; 100 μM, cell viability
  Hela-p4 MTS 100 μM: 26

## COC(=O)[C@H](Cc1ccccc1)N1C[C@H](N)C[C@H](N)C1 [AB-81, (S)-methyl 2-((3S,5R)-3,5-diaminopiperidin-1-yl)-3-phenylpropanoate]
[1]
  J-lat 50 μM: 0.1 percentage of the living fluorescent cells
  J-lat 100 μM: 0.8 percentage of the living fluorescent cells
[2]; [4]
  activity at 50 µM: 151%
[2]; [5]
  activity at 100 µM: 147%
[3]; 50 μM, cell viability
  Hela-p4 MTS 50 μM: 96
[3]; 100 μM, cell viability
  Hela-p4 MTS 100 μM: 94

## N[C@@H]1C[C@H](N)CN(C2Cc3ccccc3C2)C1 [ECO01-041-C, 1-(2,3-dihydro-1H-inden-2-yl)piperidine-3,5-diamine]
[1]
  J-lat 50 μM: 1.0 percentage of the living fluorescent cells
  J-lat 100 μM: 0.1 percentage of the living fluorescent cells
[2]; [4]
  activity at 50 µM: 114%
[2]; [5]
  activity at 100 µM: 131%
[3]; 50 μM, cell viability
  Hela-p4 MTS 50 μM: 98
[3]; 100 μM, cell viability
  Hela-p4 MTS 100 μM: 84

## N[C@@H]1C[C@H](N)CN(Cc2ccco2)C1 [ECO02-065-C]
[1]
  J-lat 50 μM: 0.5 percentage of the living fluorescent cells
[2]; [4]
  activity at 50 µM: 108%
[2]; [5]
  activity at 100 µM: 125%
[2]; [6]
  activity at 200 µM: 205%
[3]; 50 μM, cell viability
  Hela-p4 MTS 50 μM: 91
[3]; 100 μM, cell viability
  Hela-p4 MTS 100 μM: 88
[3]; cell viability
  Hela-p4 MTS 200 μM: 68

## COc1cccc(CCN2C[C@H](NC(C)=O)C[C@H](NC(C)=O)C2)c1 [ECO02-072-C, N,N′-(1-(3-methoxyphenethyl)piperidine-3,5-diyl)diacetamide]
[1]
  J-lat 50 μM: 2.1 percentage of the living fluorescent cells
[2]; [4]
  activity at 50 µM: 107%
[2]; [5]
  activity at 100 µM: 167%
[2]; [6]
  activity at 200 µM: 242%
[3]; 50 μM, cell viability
  Hela-p4 MTS 50 μM: 111
[3]; 100 μM, cell viability
  Hela-p4 MTS 100 μM: 98
[3]; cell viability
  Hela-p4 MTS 200 μM: 84

## COc1cccc(N2C[C@H](N)C[C@H](N)C2)c1 [ECO01-055-C, 1-(3-methoxyphenyl)piperidine-3,5-diamine]
[1]
  J-lat 50 μM: 0.4 percentage of the living fluorescent cells
  J-lat 100 μM: 0.1 percentage of the living fluorescent cells
[2]; [4]
  activity at 50 µM: 111%
[2]; [5]
  activity at 100 µM: 153%
[3]; 50 μM, cell viability
  Hela-p4 MTS 50 μM: 94
[3]; 100 μM, cell viability
  Hela-p4 MTS 100 μM: 94

## N[C@@H]1C[C@H](N)CN(CCCc2ccccc2)C1 [ECO01-035-C, 1-(3-phenylpropyl)piperidine-3,5-diamine]
[1]
  J-lat 50 μM: 1.5 percentage of the living fluorescent cells
  J-lat 100 μM: 2.8 percentage of the living fluorescent cells
[2]; [4]
  activity at 50 µM: 169%
[2]; [5]
  activity at 100 µM: 147%
[3]; 50 μM, cell viability
  Hela-p4 MTS 50 μM: 105
[3]; 100 μM, cell viability
  Hela-p4 MTS 100 μM: 88

## COc1ccc(CN2C[C@H](N)C[C@H](N)C2)cc1 [AB-378, (3S,5R)-1-(4-methoxybenzyl)piperidine-3,5-diamine]
[1]
  J-lat 50 μM: 0.2 percentage of the living fluorescent cells
  J-lat 100 μM: 1.7 percentage of the living fluorescent cells
[2]; [4]
  activity at 50 µM: 169%
[2]; [5]
  activity at 100 µM: 199%
[2]; [6]
  activity at 200 µM: 312%
[3]; 50 μM, cell viability
  Hela-p4 MTS 50 μM: 98
[3]; 100 μM, cell viability
  Hela-p4 MTS 100 μM: 94
[3]; cell viability
  Hela-p4 MTS 200 μM: 72

## N[C@@H]1C[C@H](N)CN(S(=O)(=O)c2ccccc2)C1 [ECO03-001-B, 1-(phenylsulfonyl)piperidine-3,5-diamine]
[1]
  J-lat 50 μM: 0.6 percentage of the living fluorescent cells
[2]; [4]
  activity at 50 µM: 118%
[2]; [5]
  activity at 100 µM: 170%
[2]; [6]
  activity at 200 µM: 360%
[3]; 50 μM, cell viability
  Hela-p4 MTS 50 μM: 97
[3]; 100 μM, cell viability
  Hela-p4 MTS 100 μM: 104
[3]; cell viability
  Hela-p4 MTS 200 μM: 109

## COc1cc(CN2C[C@H](N)C[C@H](N)C2)cc(OC)c1 [ECO02-064-C, 1-(3,5-dimethoxybenzyl)piperidine-3,5-diamine]
[1]
  J-lat 50 μM: 2.4 percentage of the living fluorescent cells
[2]; [4]
  activity at 50 µM: 109%
[2]; [5]
  activity at 100 µM: 133%
[3]; 50 μM, cell viability
  Hela-p4 MTS 50 μM: 115
[3]; 100 μM, cell viability
  Hela-p4 MTS 100 μM: 107

## N[C@@H]1C[C@H](N)CN(C23CC4CC(CC(C4)C2)C3)C1 [AB541, 1-(adamantan-1-yl)piperidine-3,5-diamine]
[1]
  J-lat 50 μM: 0.1 percentage of the living fluorescent cells
  J-lat 100 μM: 10.5 percentage of the living fluorescent cells
[2]; [4]
  activity at 50 µM: 158%
[2]; [5]
  activity at 100 µM: 157%
[3]; human, 50 μM
  Hela-p4 MTS 50 μM: 141
[3]; human, 100 μM
  Hela-p4 MTS 100 μM: 123

## CN(C)c1ccc(CN2C[C@H](N)C[C@H](N)C2)cc1 [ECO02-069-B, 1-(4-(dimethylamino)benzyl)piperidine-3,5-diamine]
[1]
  J-lat 50 μM: 1.3 percentage of the living fluorescent cells
[2]; [7]
  activity at 50 µM: 86%
  activity at 100 µM: 88%
[3]; 50 μM, cell viability
  Hela-p4 MTS 50 μM: 99
[3]; 100 μM, cell viability
  Hela-p4 MTS 100 μM: 94

## CC(C)(C)OC(=O)N[C@@H]1C[C@H](NC(=O)OC(C)(C)C)CN(S(=O)(=O)c2ccccc2)C1 [ECO02-081-C, di-tert-butyl (1-(phenylsulfonyl)piperidine-3,5-diyl)dicarbamate]
[1]
  J-lat 50 μM: 0.8 percentage of the living fluorescent cells
[2]; [4]
  activity at 50 µM: 196%
[2]; [5]
  activity at 100 µM: 207%
[2]; [6]
  activity at 200 µM: 279%
[3]; 50 μM, cell viability
  Hela-p4 MTS 50 μM: 91
[3]; 100 μM, cell viability
  Hela-p4 MTS 100 μM: 69
[3]; cell viability
  Hela-p4 MTS 200 μM: 77

## CS(=O)(=O)c1ccc(CCN2C[C@H](N)C[C@H](N)C2)cc1 [ECO01-039-C, 1-(4-(methylsulfonyl)phenethyl)piperidine-3,5-diamine]
[1]
  J-lat 50 μM: 0.1 percentage of the living fluorescent cells
  J-lat 100 μM: 0.1 percentage of the living fluorescent cells
[2]; [4]
  activity at 50 µM: 164%
[2]; [5]
  activity at 100 µM: 168%
[3]; 50 μM, cell viability
  Hela-p4 MTS 50 μM: 95
[3]; 100 μM, cell viability
  Hela-p4 MTS 100 μM: 108

## CCOc1ccc(CCN2C[C@H](N)C[C@H](N)C2)cc1 [ECO02-005-C, 1-(4-ethoxyphenethyl)piperidine-3,5-diamine]
[1]
  J-lat 50 μM: 0.5 percentage of the living fluorescent cells
  J-lat 100 μM: 0.1 percentage of the living fluorescent cells
[2]; [4]
  activity at 50 µM: 127%
[2]; [5]
  activity at 100 µM: 195%
[3]; 50 μM, cell viability
  Hela-p4 MTS 50 μM: 106
[3]; 100 μM, cell viability
  Hela-p4 MTS 100 μM: 97

## 1-(3,5-diaminopiperidin-1-yl)-2-(3-methoxyphenyl)ethanone [ECO02-030-C]
[1]
  J-lat 50 μM: 0.5 percentage of the living fluorescent cells
  J-lat 100 μM: 0.1 percentage of the living fluorescent cells
[2]; 50 μM, 48 hours after infection, control = NL4-3 virus alone
  Hela-p4 CPRG 50 μM: 139 percentage of control
[2]; 100 μM, 48 hours after infection, control = NL4-3 virus alone
  Hela-p4 CPRG 100 μM: 166 percentage of control
[3]
  Hela-p4 MTS 50 μM: 109
  Hela-p4 MTS 100 μM: 107

## COc1ccccc1CCN1C[C@H](N)C[C@H](N)C1 [ECO01-031-C, 1-(2-methoxyphenethyl)piperidine-3,5-diamine]
[1]
  J-lat 50 μM: 0.1 percentage of the living fluorescent cells
  J-lat 100 μM: 4.8 percentage of the living fluorescent cells
[2]; [4]
  activity at 50 µM: 88%
[2]; [5]
  activity at 100 µM: 108%
[3]; 50 μM, cell viability
  Hela-p4 MTS 50 μM: 88
[3]; 100 μM, cell viability
  Hela-p4 MTS 100 μM: 82

## COc1ccc(CCN2C[C@H](N)C[C@H](N)C2)cc1OC [AB-77, (3S,5R)-1-(3,4-dimethoxyphenethyl)piperidine-3,5-diamine]
[1]
  J-lat 50 μM: 0.1 percentage of the living fluorescent cells
  J-lat 100 μM: 0.8 percentage of the living fluorescent cells
[2]; [4]
  activity at 50 µM: 165%
[2]; [5]
  activity at 100 µM: 184%
[2]; [6]
  activity at 200 µM: 310%
[3]; 50 μM, cell viability
  Hela-p4 MTS 50 μM: 93
[3]; 100 μM, cell viability
  Hela-p4 MTS 100 μM: 97
[3]; cell viability
  Hela-p4 MTS 200 μM: 69
